Test results taken from ChEMBL document CHEMBL1201862, “PubChem BioAssay data set” (2004).
Active and inactive are the calls of the source.

Columns and labels:
[1] = molecular target: T1, Adenosylmethionine-8-amino-7-oxononanoate aminotransferase (Mycobacterium tuberculosis, UniProt P9WQ81); test: Mycobacterium tuberculosis BioA enzyme inhibitor Measured in Biochemical System Using Plate Reader - 2163-02_Inhibitor_Dose_CherryPick_Activity.; type: functional, Mycobacterium tuberculosis UT205
T1 sequence (P9WQ81 whole entry): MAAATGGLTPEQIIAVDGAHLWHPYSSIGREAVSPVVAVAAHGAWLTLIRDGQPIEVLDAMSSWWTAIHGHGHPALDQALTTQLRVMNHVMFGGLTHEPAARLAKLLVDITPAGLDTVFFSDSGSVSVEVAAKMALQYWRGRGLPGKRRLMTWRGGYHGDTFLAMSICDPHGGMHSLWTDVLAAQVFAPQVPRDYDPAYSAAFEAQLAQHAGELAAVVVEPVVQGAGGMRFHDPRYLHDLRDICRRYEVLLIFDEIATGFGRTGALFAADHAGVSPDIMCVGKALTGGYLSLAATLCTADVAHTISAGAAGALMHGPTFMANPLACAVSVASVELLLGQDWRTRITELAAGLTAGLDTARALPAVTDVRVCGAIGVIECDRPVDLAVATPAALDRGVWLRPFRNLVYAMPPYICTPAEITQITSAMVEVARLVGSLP

[2] = molecular target: T2, Rac GTPase-activating protein 1 (Homo sapiens, UniProt Q9H0H5); test: blockers of MgcRacGAP-driven Rac1 GTP hydrolysis – biochemical, ADP Hunter fluorescence, primary and confirmatory, confirmation (AID 624330); type: functional
T2 sequence (Q9H0H5 whole entry): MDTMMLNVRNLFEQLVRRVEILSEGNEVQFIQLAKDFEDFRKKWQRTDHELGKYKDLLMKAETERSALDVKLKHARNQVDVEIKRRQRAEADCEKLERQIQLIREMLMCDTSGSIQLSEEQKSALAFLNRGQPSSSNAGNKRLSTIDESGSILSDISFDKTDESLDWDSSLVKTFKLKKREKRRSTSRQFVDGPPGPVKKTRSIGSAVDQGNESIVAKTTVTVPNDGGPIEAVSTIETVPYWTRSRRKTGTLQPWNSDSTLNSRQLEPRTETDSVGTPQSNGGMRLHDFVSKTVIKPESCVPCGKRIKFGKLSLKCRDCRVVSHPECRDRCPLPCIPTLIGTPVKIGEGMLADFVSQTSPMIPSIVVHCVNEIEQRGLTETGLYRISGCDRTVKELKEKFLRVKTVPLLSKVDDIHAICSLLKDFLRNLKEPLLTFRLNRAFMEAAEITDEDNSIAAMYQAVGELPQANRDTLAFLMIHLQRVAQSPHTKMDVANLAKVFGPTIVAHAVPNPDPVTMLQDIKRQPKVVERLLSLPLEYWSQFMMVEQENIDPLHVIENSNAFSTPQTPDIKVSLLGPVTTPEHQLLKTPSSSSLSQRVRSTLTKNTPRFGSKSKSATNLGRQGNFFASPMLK

[3] = viability loss in HeLa cells – cytotoxicity control for MgcRacGAP inhibitor project, dose response (AID 624300); type: functional
[4] = molecular target: T3, Sentrin-specific protease 8 (Homo sapiens, UniProt Q96LD8); type: functional
T3 sequence (Q96LD8 whole entry): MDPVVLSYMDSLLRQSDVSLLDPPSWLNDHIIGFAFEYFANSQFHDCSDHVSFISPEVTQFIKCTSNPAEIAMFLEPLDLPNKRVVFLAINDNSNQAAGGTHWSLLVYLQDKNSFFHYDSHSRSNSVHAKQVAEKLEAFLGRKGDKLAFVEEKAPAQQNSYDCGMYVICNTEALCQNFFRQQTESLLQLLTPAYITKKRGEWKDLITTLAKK

[5] = molecular target: T3, Sentrin-specific protease 8; type: functional; remark: listed apart in the source
[6] = molecular target: T4, Low molecular weight phosphotyrosine protein phosphatase (Homo sapiens, UniProt P24666); type: functional; settings: read-out: IC50_Mean;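 also: Dose-response confirmation assay measuring inhibition of LMPTP enzyme activity by fluorescence intensity read-out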
T4 sequence (P24666 whole entry): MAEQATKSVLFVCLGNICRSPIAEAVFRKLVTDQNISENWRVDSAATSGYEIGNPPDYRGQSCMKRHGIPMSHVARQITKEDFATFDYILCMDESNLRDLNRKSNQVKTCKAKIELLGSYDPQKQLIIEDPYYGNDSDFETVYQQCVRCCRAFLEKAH

[7] = molecular target: T5, Carboxy-terminal domain RNA polymerase II polypeptide A small phosphatase 1 (Homo sapiens, UniProt Q9GZU7); test: CTDSP1 inhibitors, concentration-response, biochemical, absorbance readout, ultra-high-throughput screen actives (AID 540297); type: functional
T5 sequence (Q9GZU7 whole entry): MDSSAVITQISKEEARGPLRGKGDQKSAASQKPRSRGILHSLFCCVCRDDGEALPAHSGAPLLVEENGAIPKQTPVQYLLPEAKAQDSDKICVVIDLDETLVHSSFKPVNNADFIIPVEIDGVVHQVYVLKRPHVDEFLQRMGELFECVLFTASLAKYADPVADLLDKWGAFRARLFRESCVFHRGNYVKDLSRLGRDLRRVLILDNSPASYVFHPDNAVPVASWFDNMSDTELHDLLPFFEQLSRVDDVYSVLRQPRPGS

Cytochrome P450 2D6 = Cytochrome P450 2D6 (Homo sapiens, UniProt P10635);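 also: CYP2D6 member of a cytochrome P450 panel assay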
Sequence of Cytochrome P450 2D6 (P10635 whole entry): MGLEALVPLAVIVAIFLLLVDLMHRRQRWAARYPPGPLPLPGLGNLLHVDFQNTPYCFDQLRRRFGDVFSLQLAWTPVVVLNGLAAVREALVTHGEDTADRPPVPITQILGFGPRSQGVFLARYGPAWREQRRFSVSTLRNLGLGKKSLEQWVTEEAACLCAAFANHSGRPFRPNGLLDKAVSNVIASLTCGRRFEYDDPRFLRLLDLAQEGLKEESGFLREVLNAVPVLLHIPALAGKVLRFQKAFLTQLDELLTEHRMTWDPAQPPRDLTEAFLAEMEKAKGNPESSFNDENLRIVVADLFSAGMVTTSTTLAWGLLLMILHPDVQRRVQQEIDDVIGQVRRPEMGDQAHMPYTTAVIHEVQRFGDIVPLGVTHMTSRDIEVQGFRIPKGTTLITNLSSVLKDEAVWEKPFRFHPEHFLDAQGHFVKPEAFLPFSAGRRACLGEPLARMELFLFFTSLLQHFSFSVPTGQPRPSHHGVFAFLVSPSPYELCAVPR

[8] = molecular target: T6, Replicative DNA helicase DnaB (Mycobacterium tuberculosis, UniProt P9WMR3); test: DnaB intein splicing inhibitors, dose response, biochemical, cell-free fluorescence (AID 449749); type: functional
T6 sequence (P9WMR3 whole entry): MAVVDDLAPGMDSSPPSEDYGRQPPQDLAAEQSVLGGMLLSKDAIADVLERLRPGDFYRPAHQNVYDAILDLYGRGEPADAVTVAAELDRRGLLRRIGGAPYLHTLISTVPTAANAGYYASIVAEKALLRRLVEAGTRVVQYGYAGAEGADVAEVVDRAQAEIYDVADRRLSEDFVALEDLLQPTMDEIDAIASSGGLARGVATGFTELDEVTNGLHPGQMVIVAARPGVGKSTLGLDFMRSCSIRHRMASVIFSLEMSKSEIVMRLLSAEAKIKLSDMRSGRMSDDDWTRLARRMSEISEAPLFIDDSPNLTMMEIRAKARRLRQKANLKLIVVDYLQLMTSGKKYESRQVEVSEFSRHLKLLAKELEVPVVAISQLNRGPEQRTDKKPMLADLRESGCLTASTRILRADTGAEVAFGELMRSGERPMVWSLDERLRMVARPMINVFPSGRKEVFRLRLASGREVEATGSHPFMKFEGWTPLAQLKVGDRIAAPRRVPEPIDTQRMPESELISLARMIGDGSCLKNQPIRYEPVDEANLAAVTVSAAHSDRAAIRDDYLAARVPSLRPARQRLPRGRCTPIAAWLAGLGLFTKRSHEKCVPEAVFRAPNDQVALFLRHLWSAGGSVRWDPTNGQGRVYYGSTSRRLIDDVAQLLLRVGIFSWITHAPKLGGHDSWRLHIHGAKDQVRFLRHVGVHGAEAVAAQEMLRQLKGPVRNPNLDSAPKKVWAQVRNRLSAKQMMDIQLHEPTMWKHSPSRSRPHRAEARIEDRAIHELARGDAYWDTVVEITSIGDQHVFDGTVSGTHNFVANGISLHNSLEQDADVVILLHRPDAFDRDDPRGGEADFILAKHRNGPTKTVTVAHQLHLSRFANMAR

Cytochrome P450 1A2 = molecular target: T7, Cytochrome P450 1A2 (Homo sapiens, UniProt P05177);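 also: PubChem cytochrome P450 panel assay, CYP1A2 panel member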
T7 sequence (P05177 whole entry): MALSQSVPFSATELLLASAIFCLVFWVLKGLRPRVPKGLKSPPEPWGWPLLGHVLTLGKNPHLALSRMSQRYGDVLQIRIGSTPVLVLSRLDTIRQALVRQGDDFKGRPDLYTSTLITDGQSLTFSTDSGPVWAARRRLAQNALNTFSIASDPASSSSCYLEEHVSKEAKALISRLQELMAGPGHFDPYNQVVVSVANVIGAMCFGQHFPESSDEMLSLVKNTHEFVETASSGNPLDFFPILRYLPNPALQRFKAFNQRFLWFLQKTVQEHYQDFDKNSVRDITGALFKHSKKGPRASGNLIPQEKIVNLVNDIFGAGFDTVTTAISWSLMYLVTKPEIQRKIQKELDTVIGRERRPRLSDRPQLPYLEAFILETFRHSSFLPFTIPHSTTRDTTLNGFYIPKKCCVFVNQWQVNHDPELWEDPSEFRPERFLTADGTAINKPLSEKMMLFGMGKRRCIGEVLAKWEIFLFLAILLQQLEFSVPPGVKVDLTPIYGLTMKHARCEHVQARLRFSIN

Protein RecA = molecular target: T8, Protein RecA (Mycobacterium tuberculosis, UniProt P9WHJ3); test: Fluorescence Cell-Free Homogeneous Dose Retest to Identify Inhibitors of RecA-Intein Splicing Activity. [Related pubchem assays (depositor defined):AID2097, AID2223, AID489010, AID492950]; type: functional
T8 sequence (P9WHJ3 whole entry): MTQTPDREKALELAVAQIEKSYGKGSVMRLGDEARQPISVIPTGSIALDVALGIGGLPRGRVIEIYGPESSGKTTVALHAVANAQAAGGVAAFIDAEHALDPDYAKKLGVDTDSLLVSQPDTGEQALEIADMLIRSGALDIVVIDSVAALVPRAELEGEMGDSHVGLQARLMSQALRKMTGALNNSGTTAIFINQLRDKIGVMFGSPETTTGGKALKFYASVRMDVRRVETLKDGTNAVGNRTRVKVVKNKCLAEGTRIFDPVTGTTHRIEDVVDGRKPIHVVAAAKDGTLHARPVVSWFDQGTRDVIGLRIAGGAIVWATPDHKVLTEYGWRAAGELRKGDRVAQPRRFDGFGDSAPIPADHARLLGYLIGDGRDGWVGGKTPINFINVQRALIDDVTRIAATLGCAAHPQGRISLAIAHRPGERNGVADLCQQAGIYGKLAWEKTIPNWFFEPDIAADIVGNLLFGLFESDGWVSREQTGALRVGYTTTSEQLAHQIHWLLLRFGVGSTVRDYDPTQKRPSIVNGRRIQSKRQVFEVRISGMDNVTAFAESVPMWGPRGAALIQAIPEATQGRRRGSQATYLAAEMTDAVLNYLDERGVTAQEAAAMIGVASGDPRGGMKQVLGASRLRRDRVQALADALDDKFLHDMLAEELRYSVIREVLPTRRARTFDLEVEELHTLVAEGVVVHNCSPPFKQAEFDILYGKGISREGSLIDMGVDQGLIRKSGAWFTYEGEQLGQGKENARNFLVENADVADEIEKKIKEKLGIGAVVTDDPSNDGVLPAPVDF

Genome polyprotein = Genome polyprotein (dengue virus type 2, UniProt P29990); test: flavivirus cap methylation enzyme inhibition – biochemical, confirmation dose response, primary screen (AID 588689); type: functional
Sequence of Genome polyprotein (P29990 2492-3391 limits assumed): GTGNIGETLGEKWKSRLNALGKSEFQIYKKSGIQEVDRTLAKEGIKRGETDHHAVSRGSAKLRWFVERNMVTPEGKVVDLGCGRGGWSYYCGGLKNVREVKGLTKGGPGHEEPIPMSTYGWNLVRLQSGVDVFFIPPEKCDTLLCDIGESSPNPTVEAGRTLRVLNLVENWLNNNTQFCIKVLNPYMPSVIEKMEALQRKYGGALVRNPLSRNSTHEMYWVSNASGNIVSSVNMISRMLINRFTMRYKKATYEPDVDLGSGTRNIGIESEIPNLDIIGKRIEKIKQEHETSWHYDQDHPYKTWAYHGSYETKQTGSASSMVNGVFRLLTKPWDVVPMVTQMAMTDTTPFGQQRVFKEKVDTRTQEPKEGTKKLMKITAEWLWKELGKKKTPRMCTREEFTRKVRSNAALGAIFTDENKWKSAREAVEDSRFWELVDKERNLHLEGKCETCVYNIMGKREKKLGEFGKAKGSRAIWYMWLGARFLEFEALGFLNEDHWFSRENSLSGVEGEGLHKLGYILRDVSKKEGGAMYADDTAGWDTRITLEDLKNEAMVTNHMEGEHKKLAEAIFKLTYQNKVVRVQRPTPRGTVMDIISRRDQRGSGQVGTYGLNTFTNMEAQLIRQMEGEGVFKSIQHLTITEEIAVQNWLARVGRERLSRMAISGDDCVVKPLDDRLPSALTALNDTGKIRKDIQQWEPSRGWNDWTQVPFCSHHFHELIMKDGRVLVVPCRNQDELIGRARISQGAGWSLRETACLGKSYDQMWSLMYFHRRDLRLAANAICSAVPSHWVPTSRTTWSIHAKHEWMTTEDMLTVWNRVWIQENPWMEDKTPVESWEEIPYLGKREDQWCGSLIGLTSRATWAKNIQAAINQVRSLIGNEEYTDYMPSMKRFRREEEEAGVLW

[9] = Luminescence Cell-Based Dose Retest to Confirm Inhibitors of Cancer Stem Cells. [Related pubchem assays (depositor defined):AID2717, AID2721]; type: functional; settings: Homo sapiens
[10] = Fluorescence-based cell-based high throughput dose response assay for inhibitors of the interaction of nucleotide-binding oligomerization domain containing 2 (NOD2) and the receptor-interacting serine-threonine kinase 2 (RIPK2).; type: functional; settings: Homo sapiens
[11] = molecular target: T9, Microphthalmia-associated transcription factor (Homo sapiens, UniProt O75030); test: reducers of TRPM1 reporter luminescence, concentration series – cell-based, SK-MEL-5, cherry-picked, set 3, MITF inhibitor project, dose response (AID 493073); type: functional;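 also: SK-MEL-5 melanoma cells with luciferase driven by the MITF target TRPM1 promoter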
T9 sequence (O75030 whole entry): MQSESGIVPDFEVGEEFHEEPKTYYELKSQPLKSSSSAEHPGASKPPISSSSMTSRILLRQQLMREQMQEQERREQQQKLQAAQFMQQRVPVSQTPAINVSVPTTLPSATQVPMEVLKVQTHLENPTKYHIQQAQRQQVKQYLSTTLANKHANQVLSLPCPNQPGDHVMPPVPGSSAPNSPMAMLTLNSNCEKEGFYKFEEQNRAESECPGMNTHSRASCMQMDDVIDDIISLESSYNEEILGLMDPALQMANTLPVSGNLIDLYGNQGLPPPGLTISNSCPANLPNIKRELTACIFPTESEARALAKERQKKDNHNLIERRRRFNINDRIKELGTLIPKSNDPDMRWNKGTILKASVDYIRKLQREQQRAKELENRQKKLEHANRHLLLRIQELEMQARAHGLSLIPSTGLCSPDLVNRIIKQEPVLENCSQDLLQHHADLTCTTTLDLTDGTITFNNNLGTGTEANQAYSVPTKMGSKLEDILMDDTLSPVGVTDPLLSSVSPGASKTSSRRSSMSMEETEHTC

For CC1=CC2=NC(=O)/C(=C\c3cc(C)n(-c4ccccc4F)c3C)C(=N)N2O1, the AC50 [1] was 0.247 µM (active).

For Oc1ccc(-c2[nH]ncc2-c2ccc(Cl)cc2)c(O)c1, the IC50 [2] was 90.8 µM (active) and the CC50 [3] was 100 µM (active).

For COc1ccccc1-n1c(/C=C/c2ccc(O)cc2)nc2ccccc2c1=O, the IC50 [2] was 106 µM (active) and the CC50 [3] was 100 µM (active).

For COC/C=C/C1=CC2=CC(=O)C(C)(OC(=O)c3cnc4ccccc4n3)C(=O)C2=CN1Cc1ccccc1 (configuration not stated), the IC50 [4] was 12.7 µM (active) and the IC50 [5] was 18.9 µM (active).

In the case of O=c1c2cc(-c3ccccc3)sc2nc2n1N=C(c1cccs1)CS2, the IC50 [6] is reported as 13.7 µM (active) and the IC50 [7] is reported as 6.3 µM (active).

With Cc1nn(-c2ccc(F)cc2)c(O)c1C(c1cccc(O)c1)c1c(C)[nH]n(-c2ccc(F)cc2)c1=O (configuration not stated) the AC50 (Cytochrome P450 2D6) was 28.2 µM (inconclusive), the AC50 [8] was 1.06 µM (active) and the AC50 (Cytochrome P450 1A2) was 25.1 µM (inconclusive). The EC50 (Protein RecA) was 0.856 µM (active), the IC50 [4] was 12.2 µM (active) and the IC50 (Genome polyprotein) was 55.5 µM (active). The IC50 [5] was 14.6 µM (active).

In the case of COc1ccc(CNc2nc(-c3ccccc3)nc3ccccc23)cc1OC, the IC50 [6] is reported as 9.94 µM (active).

In the case of O=[N+]([O-])c1cc(S(=O)(=O)N2CCCCCC2)ccc1F, the AC50 [9] is reported as 3.09 µM (active), the IC50 [10] is reported as 1.53 µM (active) and the AC50 [11] is reported as 9.53 µM (active).

In the case of CC(=O)OCC(=O)[C@@]1(OC(C)=O)[C@@H](C)C[C@H]2[C@@H]3C[C@H](F)C4=CC(=O)C=C[C@]4(C)[C@@]3(F)[C@@H](O)C[C@@]21C [DIFLORASONE DIACETATE], the AC50 [1] is reported as 9.06 µM (active).

In the case of Cc1nc2nc(SCC(=O)N3CCC4(CC3)OCCO4)nn2c(C)c1Cc1ccccc1, the AC50 [1] is reported as 2.82 µM (active).
